Data reported in DBAASP.
Values after ≈ are worked out from the molar mass of the structure shown. Values joined by “and” are separate entries in the source; they are usually repeats but may differ in a detail not shown here. Equal values may be shown once. Each block holds one compound with its values, some of them ahead of it.

Key:
Assay in all cases: ≥ marks a high value that may be exact or a test limit, other limits are often not marked, values filed in µg/mL are converted to µM
[1] = test system: Trichophyton mentagrophytes
Neurospora crassa = test system: Neurospora crassa
Fusarium oxysporum = test system: Fusarium oxysporum
Aspergillus fumigatus = test system: Aspergillus fumigatus
Alternaria brassicicola = test system: Alternaria brassicicola
Fusarium haematococcum = test system: Fusarium haematococcum
Botrytis cinerea = test system: Botrytis cinerea
Beauveria bassiana = test system: Beauveria bassiana
Fusarium culmorum = test system: Fusarium culmorum
Trichoderma viride = test system: Trichoderma viride
[2] = test system: Escherichia coli DH5alpha
Enterococcus faecium = test system: Enterococcus faecium
[3] = test system: Bacillus subtilis ATCC 6633
Bacillus megaterium Bm11 = test system: Bacillus megaterium Bm11
Cryptococcus neoformans = test system: Cryptococcus neoformans
[4] = test system: Escherichia coli O18:K1:H7 Bort
[5] = test system: Staphylococcus aureus ATCC 9144
Candida albicans = test system: Candida albicans
Escherichia coli D21 = test system: Escherichia coli D21
[6] = test system: Escherichia coli ATCC 10536
[7] = test system: Staphylococcus epidermidis ATCC 12228
[8] = test system: Staphylococcus aureus Cowan 1
[9] = test system: Salmonella enterica subsp. enterica serovar Typhimurium ATCC 14028
[10] = test system: Escherichia coli ATCC 25922
[11] = test system: Serratia marcescens ATCC 8100
Escherichia coli ML-35 = test system: Escherichia coli ML-35
[12] = test system: Staphylococcus aureus ATCC 25923
Staphylococcus aureus = test system: Staphylococcus aureus
[13] = test system: Pseudomonas aeruginosa ATCC 27853
Serratia marcescens = test system: Serratia marcescens
Streptococcus agalactiae = test system: Streptococcus agalactiae
[14] = test system: Staphylococcus aureus V4180
[15] = test system: Candida albicans ATCC 90028
[16] = test system: Staphylococcus aureus 127/08
[17] = test system: Acinetobacter baumannii I NM8
[18] = test system: Escherichia coli ATCC 25726
[19] = test system: Klebsiella pneumoniae ATCC 700603
[20] = test system: Staphylococcus aureus T4/6
[21] = test system: Staphylococcus aureus 145/08
[22] = test system: Staphylococcus aureus S908
[23] = test system: Staphylococcus aureus 274/08
[24] = test system: Staphylococcus aureus NCTC 8325

MIC [1]: ≥ 100 µM
MIC (Neurospora crassa): ≥ 50 µM
MIC (Fusarium oxysporum): 12.5 µM (≈ 34.4 µg/mL)
MIC (Aspergillus fumigatus): ≥ 100 µM
MIC (Alternaria brassicicola): 6.25 µM (≈ 17.2 µg/mL)
MIC (Fusarium haematococcum): 6.25 µM (≈ 17.2 µg/mL)
MIC (Botrytis cinerea): ≥ 100 µM
MIC (Beauveria bassiana): ≥ 100 µM
MIC (Fusarium culmorum): 12.5 µM (≈ 34.4 µg/mL)
MIC (Trichoderma viride): 6.25 µM (≈ 17.2 µg/mL)
SMILES: CC[C@H](C)[C@H](NC(=O)[C@H](Cc1cnc[nH]1)NC(=O)[C@H](CCC(=O)O)NC(=O)CNC(=O)[C@H](Cc1cnc[nH]1)NC(=O)[C@H](CC(N)=O)NC(=O)[C@H](Cc1ccccc1)NC(=O)[C@@H](NC(=O)[C@H](CCCCN)NC(=O)[C@@H](NC(=O)[C@H](CCC(N)=O)NC(=O)[C@@H](NC(=O)[C@H](Cc1cnc[nH]1)NC(=O)CNC(=O)[C@H](Cc1ccccc1)NC(=O)[C@H](CC(N)=O)NC(=O)[C@@H]1CCCN1C(=O)[C@H](CC(C)C)NC(=O)[C@H](CC(=O)O)NC(=O)[C@H](CCC(=O)O)NC(=O)[C@@H](N)Cc1ccccc1)[C@@H](C)CC)C(C)C)C(C)C)C(=O)N[C@@H](Cc1cnc[nH]1)C(=O)N[C@@H](Cc1cnc[nH]1)C(=O)O [FEDLPNFGHIQVKVFNHGEHIHH]

MIC [2]: 2.4 µM (≈ 7.51 µg/mL)
MIC (Enterococcus faecium): 2.83 µM (≈ 8.86 µg/mL)
MIC [3]: 1.6 µM (≈ 5.01 µg/mL)
MIC (Bacillus megaterium Bm11): 2 µM (≈ 6.26 µg/mL)
MIC (Cryptococcus neoformans): 4 µM (≈ 12.5 µg/mL)
MIC [4]: 2 µM (≈ 6.26 µg/mL)
MIC [5]: 3 µM (≈ 9.39 µg/mL)
MIC (Candida albicans): 8 µM (≈ 25 µg/mL)
MIC (Escherichia coli D21): 0.5 µM (≈ 1.57 µg/mL)
MIC [6]: 2.6 µM (≈ 8.14 µg/mL)
MIC [7]: 1 µM (≈ 3.13 µg/mL)
MIC [8]: 1 µM (≈ 3.13 µg/mL)
MIC [9]: 1 µM (≈ 3.13 µg/mL)
MIC [10]: 2 µM (≈ 6.26 µg/mL)
MIC [11]: 2 µM (≈ 6.26 µg/mL)
MIC (Escherichia coli ML-35): 2 µM (≈ 6.26 µg/mL)
MIC [12]: 2 µM (≈ 6.26 µg/mL)
MIC (Staphylococcus aureus): 2.83 µM (≈ 8.86 µg/mL)
MIC [13]: 2 µM and > 1 µM
MIC (Serratia marcescens): 8 µM (≈ 25 µg/mL)
MIC (Streptococcus agalactiae): 2.83 µM (≈ 8.86 µg/mL)
SMILES: CC[C@H](C)[C@H](NC(=O)[C@H](CCCN=C(N)N)NC(=O)[C@@H](NC(=O)[C@@H](NC(=O)[C@@H]1CCCN1C(=O)[C@@H](NC(=O)[C@@H](NC(=O)[C@@H](NC(=O)[C@@H]1CCCN1C(=O)CNC(=O)[C@H](Cc1ccc(O)cc1)NC(=O)[C@H](CCCCN)NC(=O)[C@H](CCCCN)NC(=O)[C@H](Cc1c[nH]c2ccccc12)NC(=O)[C@H](C)NC(=O)[C@H](CCCN=C(N)N)NC(=O)[C@H](CC(C)C)NC(=O)[C@@H](NC(=O)[C@H](CCCCN)NC(=O)[C@H](CCCN=C(N)N)NC(=O)CNC(=O)[C@H](CC(C)C)NC(=O)[C@H](CO)NC(=O)[C@H](CCCN=C(N)N)NC(=O)[C@H](CC(C)C)NC(=O)CNC(=O)CN)[C@@H](C)CC)[C@@H](C)CC)[C@@H](C)CC)C(C)C)[C@@H](C)CC)[C@@H](C)CC)C(=O)NCC(N)=O [GGLRSLGRKILRAWKKYGPIIVPIIRIG]

MIC [14]: 5 µM (≈ 9.08 µg/mL)
MIC [15]: ≥ 100 µM
MIC [16]: 5 µM (≈ 9.08 µg/mL)
MIC [17]: 6 µM (≈ 10.9 µg/mL)
MIC [18]: ≥ 50 µM
MIC [19]: 50 µM (≈ 90.8 µg/mL)
MIC [10]: 50 µM (≈ 90.8 µg/mL)
MIC [20]: 5 µM (≈ 9.08 µg/mL)
MIC [21]: 5 µM (≈ 9.08 µg/mL)
MIC [13]: 50 µM (≈ 90.8 µg/mL)
MIC [22]: 5 µM (≈ 9.08 µg/mL)
MIC [23]: 5 µM (≈ 9.08 µg/mL)
MIC [24]: ≥ 80 µM
SMILES: CC(C)C[C@H](NC(=O)[C@H](CC(C)C)NC(=O)[C@H](CC(N)=O)NC(=O)[C@H](CO)NC(=O)CNC(=O)[C@@H](NC(=O)[C@H](CCCCN)NC(=O)[C@H](CC(C)C)NC(=O)CNC(=O)[C@@H](NC(=O)[C@H](CCCCN)NC(=O)[C@H](CC(C)C)NC(=O)[C@H](CC(C)C)NC(=O)[C@H](CO)NC(=O)CNC(=O)[C@H](CC(C)C)NC(=O)[C@H](Cc1ccccc1)NC(=O)CN)[C@@H](C)O)C(C)C)C(N)=O [GFLGSLLKTGLKVGSNLL]
